# Source: patent US7928104B2, “7-phenylalkyl substituted 2-quinolinones and 2-quinoxalinones as poly(ADP-ribose) polymerase inhibitors” (priority 2003, dated 2011)
# Where a name gives a salt, the structure may show the parent alone.
# Tests used:
# [1] = system: ischemia and reperfusion of the heart; conditions: rabbits, cited from earlier work
# colitis = conditions: rats, colitis induced by intraluminal trinitrobenzene sulfonic acid in 50% ethanol; cited from earlier work
# PARP-1 enzyme [2] = biological target: T1, PARP-1 enzyme (Homo sapiens, UniProt P09874); test: In vitro Scintillation Proximity Assay (SPA) for PARP-1 inhibitory activity; type: biochemical; conditions: nicked DNA activated PARP-1, [3H]-NAD+, biotinylated histones; read-out: In vitro SPA pIC50 (converted)
# T1 construct: made in house
# Experimental: Compounds of the present invention were tested in an in vitro assay based on SPA technology (proprietary to Amersham Pharmacia Biotech).
# In principle, the assay relies upon the well established SPA technology for the detection of poly(ADP-ribosyl)ation of biotinylated target proteins, i.e histones. This ribosylation is induced using nicked DNA activated PARP-1 enzyme and [^3H]-nicotinamide adenine dinucleotide ([^3H]-NAD^+) as ADP-ribosyl donor.
# As inducer of PARP-1 enzyme activity, nicked DNA was prepared. For this, 25 mg of DNA (supplier: Sigma) was dissolved in 25 ml DNAse buffer (10 mM Tris-HCl, pH 7.4; 0.5 mg/ml Bovine Serum Albumine (BSA); 5 mM MgCl2.6H2O and 1 mM KCl) to which 50 μl DNAse solution (1 mg/ml in 0.15 M NaCl) was added. After an incubation of 90 min. at 37° C., the reaction was terminated by adding 1.45 g NaCl, followed by a further incubation at 58° C. for 15 min. The reaction mixture was cooled on ice and dialysed at 4° C. for respectively 1.5 and 2 hours against 1.5 l of 0.2 M KCl, and twice against 1.5 l of 0.01 M KCl for 1.5 and 2 h respectively. The mixture was aliquoted and stored at −20° C. Histones (1 mg/ml, type II-A, supplier: Sigma) were biotinylated using the biotinylation kit of Amersham and stored aliquoted at −20° C. A stock solution of 100 mg/ml SPA poly(vinyl toluene) (PVT) beads (supplier: Amersham) was made in PBS. A stock solution of [^3H]-NAD^+ was made by adding 120 μl of [^3H]-NAD^+ (0.1 mCi/ml, supplier: NEN) to 6 ml incubation buffer (50 mM Tris/HCl, pH 8; 0.2 mM DTT; 4 mM MgCl2). A solution of 4 mM NAD^+ (supplier: Roche) was made in incubation buffer (from a 100 mM stock solution in water stored at −20° C.). The PARP-1 enzyme was produced using art known techniques, i.e. cloning and expression of the protein starting from human liver cDNA. Information concerning the used protein sequence of the PARP-1 enzyme including literature references can be found in the Swiss-Prot database under primary accession number P09874. Biotinylated histones and PVT-SPA beads were mixed and pre-incubated for 30 min. at room temperature. PARP-1 enzyme (concentration was lot dependent) was mixed with the nicked DNA and the mixture was pre-incubated for 30 min. at 4° C. Equal parts of this histones/PVT-SPA beads solution and PARP-1 enzyme/DNA solution were mixed and 75 μl of this mixture together with 1 μl of compound in DMSO and 25 μl of [^3H]-NAD^+ was added per well into a 96-well microtiterplate. The final concentrations in the incubation mixture were 2 μg/ml for the biotinylated histones, 2 mg/ml for the PVT-SPA beads, 2 μg/ml for the nicked DNA and between 5-10 μg/ml for the PARP-1 enzyme. After incubation of the mixture for 15 min. at room temperature, the reaction was terminated by adding 100 μl of 4 mM NAD^+ in incubation buffer (final concentration 2 mM) and plates were mixed. The beads were allowed to sediment for at least 15 min. and plates transferred to a TopCountNXT™ (Packard) for scintillation counting, values were expressed as counts per minute (cpm). For each experiment, controls (containing PARP-1 enzyme and DMSO without compound), a blank incubation (containing DMSO but no PARP-1 enzyme or compound) and samples (containing PARP-1 enzyme and compound dissolved in DMSO) were run in parallel. All compounds tested were dissolved and eventually further diluted in DMSO. […] In each test, the blank value was subtracted from both the control and the sample values. The control sample represented maximal PARP-1 enzyme activity. For each sample, the amount of cpm was expressed as a percentage of the mean cpm value of the controls. When appropriate, IC50-values (concentration of the drug, needed to reduce the PARP-1 enzyme activity to 50% of the control) were computed using linear interpolation between the experimental points just above and below the 50% level. Herein the effects of test compounds are expressed as pIC50 (the negative log value of the IC50-value). […]
# PARP-1 enzyme [3] = biological target: T1, PARP-1 enzyme; test: In vitro filtration assay for PARP-1 inhibitory activity; type: biochemical; conditions: nicked DNA activated PARP-1, [32P]-NAD+, histones; read-out: In vitro filtration assay pIC50 (converted)
# Experimental: Compounds of the present invention were tested in an in vitro filtration assay assessing PARP-1 activity (triggered in the presence of nicked DNA) by means of its histone poly(ADP-ribosyl)ation activity using [^32P]-NAD as ADP-ribosyl donor. The radioactive ribosylated histones were precipitated by trichloroacetic acid (TCA) in 96-well filterplates and the incorporated [^32P] measured using a scintillation counter
# A mixture of histones (stock solution: 5 mg/ml in H2O), NAD^+ (stock solution: 100 mM in H2O), and [^32P]-NAD^+ in incubation buffer (50 mM Tris/HCl, pH 8; 0.2 mM DTT; 4 mM MgCl2) was made. A mixture of the PARP-1 enzyme (5-10 μg/ml) and nicked DNA was also made. The nicked DNA was prepared as described in the in vitro SPA for PARP-1 inhibitory activity. Seventy-five μl of the PARP-1 enzyme/DNA mixture together with 1 μl of compound in DMSO and 25 μl of histones-NAD^+/[^32P]-NAD^+ mixture was added per well of a 96-well filterplate (0.45 μm, supplier Millipore). The final concentrations in the incubation mixture were 2 μg/ml for the histones, 0.1 mM for the NAD^+, […] (0.5 μC) for the [^32P]-NAD^+ and 2 μg/ml for the nicked DNA. Plates were incubated for 15 min. at room temperature and the reaction was terminated by the addition of 10 μl ice cold 100% TCA followed by the addition of 10 μl ice-cold BSA solution (1% in H2O). The protein fraction was allowed to precipitate for 10 min. at 4° C. and plates were vacuum filtered. The plates were subsequently washed with, for each well, 1 ml of 10% ice cold TCA, 1 ml of 5% ice cold TCA and 1 ml of 5% TCA at room temperature. Finally 100 μl of scintillation solution (Microscint 40, Packard) was added to each well and the plates were transferred to a TopCountNXT™ (supplier: Packard) for scintillation counting and values were expressed as counts per minute (cpm). For each experiment, controls (containing PARP-1 enzyme and DMSO without compound), a blank incubation (containing DMSO but no PARP-1 enzyme or compound) and samples (containing PARP-1 enzyme and compound dissolved in DMSO) were run in parallel. All compounds tested were dissolved and eventually further diluted in DMSO. In first instance, compounds were tested at a concentration of 10^−5M. […] In each test, the blank value was subtracted from both the control and the sample values. The control sample represented maximal PARP-1 enzyme activity. For each sample, the amount of cpm was expressed as a percentage of the mean cpm value of the controls. When appropriate, IC50-values (concentration of the drug, needed to reduce the PARP-1 enzyme activity to 50% of the control) were computed using linear interpolation between the experimental points just above and below the 50% level. Herein the effects of test compounds are expressed as pIC50 (the negative log value of the IC50−-value). As a reference compound, 4-amino-1,8-naphthalimide was included to validate the filtration assay.
# T1 sequence (P09874 whole entry): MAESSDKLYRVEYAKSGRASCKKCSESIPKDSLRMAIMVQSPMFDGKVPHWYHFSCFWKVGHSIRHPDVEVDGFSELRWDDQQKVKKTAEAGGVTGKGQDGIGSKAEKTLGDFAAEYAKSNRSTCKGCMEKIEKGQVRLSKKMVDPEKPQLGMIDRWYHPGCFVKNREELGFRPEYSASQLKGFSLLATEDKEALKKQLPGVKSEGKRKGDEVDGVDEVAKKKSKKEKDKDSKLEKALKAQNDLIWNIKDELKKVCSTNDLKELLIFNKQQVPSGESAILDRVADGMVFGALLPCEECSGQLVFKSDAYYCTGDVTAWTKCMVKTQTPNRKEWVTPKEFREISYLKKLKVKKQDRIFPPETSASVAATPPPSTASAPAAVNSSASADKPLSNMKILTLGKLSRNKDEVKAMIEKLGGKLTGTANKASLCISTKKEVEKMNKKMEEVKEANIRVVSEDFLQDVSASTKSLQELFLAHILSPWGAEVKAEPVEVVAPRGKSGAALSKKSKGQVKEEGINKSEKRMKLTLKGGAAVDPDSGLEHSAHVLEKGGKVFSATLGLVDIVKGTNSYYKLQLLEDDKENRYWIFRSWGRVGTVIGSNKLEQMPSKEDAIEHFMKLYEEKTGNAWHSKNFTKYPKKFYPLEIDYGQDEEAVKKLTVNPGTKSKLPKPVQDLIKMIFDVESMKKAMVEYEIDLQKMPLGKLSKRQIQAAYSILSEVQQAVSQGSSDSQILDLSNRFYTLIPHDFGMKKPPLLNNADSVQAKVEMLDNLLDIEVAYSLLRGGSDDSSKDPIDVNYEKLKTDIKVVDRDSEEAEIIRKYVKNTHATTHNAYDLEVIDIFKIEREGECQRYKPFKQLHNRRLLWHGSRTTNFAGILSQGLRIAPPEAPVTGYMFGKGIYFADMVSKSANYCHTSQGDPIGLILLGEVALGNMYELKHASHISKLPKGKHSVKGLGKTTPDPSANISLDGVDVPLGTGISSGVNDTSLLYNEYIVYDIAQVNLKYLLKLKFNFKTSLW
SMILES,IC50 (PARP-1 enzyme [2]),IC50 (PARP-1 enzyme [3]),also measured
CCc1nc2ccc(C(c3ccccc3)N3CCC(NCCOC)CC3)cc2[nH]c1=O (stereo not shown) (as salt: salt) [Compound 2],,,melting point: 98 °C
"Oc1cccc2c(O)nccc12 [1,5-dihydroxyisoquinoline]",,,reduction in infarct size ([1]; single injection 1 mg/kg): 38-48%
NC(=O)c1cccc(N)c1 [3-amino-benzamide],,,"effect on inflammatory response, distal colon (colitis): reduced the inflammatory response; reduction in infarct size in the heart ([1]; single injection 10 mg/kg, one minute before occlusion or one minute before reperfusion): 32-42%"
CCc1nc2ccc(CC(c3ccccc3)n3ccnc3)cc2[nH]c1=O (stereo not shown) [Compound 1],206 nM,,melting point: 166 °C
CCc1nc2ccc(C(c3ccccc3)N3CCC(NCCOC)CC3)cc2[nH]c1=O (stereo not shown) [Compound 2],7.5 nM,,
Cc1cc2ccc(C(CCN(C)C)c3ccccc3)cc2[nH]c1=O (stereo not shown) [Compound 3],899 nM,9890 nM,
CCc1nc2ccc(C(O)c3ccccc3)cc2[nH]c1=O (stereo not shown) [Compound 4],409 nM,,melting point: 202 °C
CCc1nc2ccc(C(c3ccc(Cl)cc3)N3CCCCC3)cc2[nH]c1=O (stereo not shown) [Compound 5],236 nM,693 nM,
CCOC(=O)C1CCN(C(c2ccc(Cl)cc2)c2ccc3nc(CC)c(=O)[nH]c3c2)CC1 (stereo not shown) [Compound 6],818 nM,,
CCc1nc2ccc(CC(c3ccc(Cl)cc3)N3CCCC3)cc2[nH]c1=O (stereo not shown) [Compound 7],586 nM,,
Cc1nc2ccc(C(c3ccc(C(C)C)cc3)n3ccnc3)cc2[nH]c1=O (stereo not shown) [Compound 8],411 nM,1410 nM,
CCc1nc2ccc(C(NCCCN(C)Cc3ccccc3)c3ccccc3)cc2[nH]c1=O (stereo not shown) [Compound 9],312 nM,,
CCc1nc2ccc(CC(O)c3ccc(Cl)cc3)cc2[nH]c1=O (stereo not shown) [Compound 10],552 nM,,
CCc1nc2ccc(CC(O)c3ccccc3)cc2[nH]c1=O (stereo not shown) [Compound 11],914 nM,,
CCc1nc2ccc(C(c3cccc(F)c3)n3ccnc3)cc2[nH]c1=O (stereo not shown) [Compound 12],728 nM,3600 nM,
CCc1nc2ccc(C(c3ccccc3F)n3ccnc3)cc2[nH]c1=O (stereo not shown) [Compound 13],718 nM,4940 nM,
CCc1nc2ccc(C(c3ccccc3)n3cccn3)cc2[nH]c1=O (stereo not shown) [Compound 14],1600 nM,2670 nM,
CCc1nc2ccc(CC(c3ccc(Cl)cc3)n3ccnc3)cc2[nH]c1=O (stereo not shown) [Compound 15],329 nM,6380 nM,
CCc1nc2ccc(C(c3ccccc3)c3cccnc3)cc2[nH]c1=O (stereo not shown) [Compound 16],577 nM,4530 nM,
CCc1nc2ccc(C(c3ccccc3)n3cncn3)cc2[nH]c1=O (stereo not shown) [Compound 17],334 nM,,
CCc1nc2ccc(C(c3ccc(F)cc3)n3ccnc3)cc2[nH]c1=O (stereo not shown) [Compound 18],1000 nM,4130 nM,
CCc1nc2ccc(C(c3ccccc3)n3ccnc3)cc2[nH]c1=O (stereo not shown) [Compound 19],231 nM,615 nM,
"Cc1nc2ccc(C(c3ccc(Cl)cc3)n3ccnc3)cc2[nH]c1=O (stereo not shown) [Compound 20, 7-[(4-chlorophenyl)-1H-imidazol-1-ylmethyl]-3-methyl-2(1H)-quinoxalinone]",4110 nM,> 10000 nM,
